Source: the supplement of paper PMC10307832

Columns and labels:
Assay in all cases: relative viability (nuclei count vs DMSO), 5 days (fraction); higher = more cells survive
NCI-H1792 = tested on: NCI-H1792
Outline: (§1)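 Lung cancer cell lines, seeded in 1536-well plates, were treated the following day by pin tool with a single drug or with five library-drug doses (not always all listed) in √10 steps on top of a fixed anchor-drug dose. Cells were fixed and nuclei stained in one step after 5 days, and nuclei were counted. Relative viability is the nuclei count for treated wells divided by that for vehicle wells, reported as medians of duplicate plates.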

NCI-H2009 = tested on: NCI-H2009
Outline: as §1

NCI-H23 = tested on: NCI-H23
Outline: as §1

CAL-12T = tested on: CAL-12T
Outline: as §1

LU99A = tested on: LU99A
Outline: as §1

SK-MES-1 = tested on: SK-MES-1
Outline: as §1

HCC-827 = tested on: HCC-827
Outline: as §1

PC-3 [JPC-3] = tested on: PC-3 [JPC-3]
Outline: as §1

NCI-H1651 = tested on: NCI-H1651
Outline: as §1

NCI-H2170 = tested on: NCI-H2170
Outline: as §1

HARA = tested on: HARA
Outline: as §1

UMC-11 = tested on: UMC-11
Outline: as §1

HCC-15 = tested on: HCC-15
Outline: as §1

NCI-H650 = tested on: NCI-H650
Outline: as §1

LCLC-97TM1 = tested on: LCLC-97TM1
Outline: as §1

NCI-H661 = tested on: NCI-H661
Outline: as §1

NCI-H1395 = tested on: NCI-H1395
Outline: as §1

COR-L 105 = tested on: COR-L 105
Outline: as §1

NCI-H2405 = tested on: NCI-H2405
Outline: as §1

H3255 = tested on: H3255
Outline: as §1

NCI-H2087 = tested on: NCI-H2087
Outline: as §1

NCI-H2228 = tested on: NCI-H2228
Outline: as §1

201T = tested on: 201T
Outline: as §1

In the case of `C=C1C(=O)O[C@@H](CCCCCCCC)[C@@H]1C(=O)O` [C-75] + Nc1nc2[nH]cc(CCc3ccc(C(=O)N[C@@H](CCC(=O)O)C(=O)O)cc3)c2c(=O)[nH]1 [Pemetrexed] (partner 0.2 µM), the relative viability (NCI-H1792; first compound 0.08 µM) is reported as 0.816, the relative viability (NCI-H1792; first compound 0.253 µM) is reported as 0.92 and the relative viability (NCI-H1792; first compound 0.8 µM) is reported as 0.882. It also gave a relative viability (NCI-H1792; first compound 2.53 µM) of 0.481, a relative viability (NCI-H1792; first compound 8 µM) of 0.678 and a relative viability (NCI-H2009; first compound 0.08 µM) of 1.12. The relative viability (NCI-H2009; first compound 0.253 µM) was 0.924, the relative viability (NCI-H2009; first compound 0.8 µM) was 0.947 and the relative viability (NCI-H2009; first compound 2.53 µM) was 0.886. The relative viability (NCI-H2009; first compound 8 µM) was 0.975, the relative viability (NCI-H23; first compound 0.08 µM) was 0.716 and the relative viability (NCI-H23; first compound 0.253 µM) was 1.03. For the same compound, the relative viability (NCI-H23; first compound 0.8 µM) was 0.546, the relative viability (NCI-H23; first compound 2.53 µM) was 0.406 and the relative viability (NCI-H23; first compound 8 µM) was 0.443. It also gave a relative viability (CAL-12T; first compound 0.08 µM) of 1.37, a relative viability (CAL-12T; first compound 0.253 µM) of 1.45 and a relative viability (CAL-12T; first compound 0.8 µM) of 1.11. It also gave a relative viability (CAL-12T; first compound 2.53 µM) of 1.05, a relative viability (CAL-12T; first compound 8 µM) of 1.27 and a relative viability (LU99A; first compound 0.08 µM) of 0.191. For the same compound, the relative viability (LU99A; first compound 0.253 µM) was 0.212, the relative viability (LU99A; first compound 0.8 µM) was 0.195 and the relative viability (LU99A; first compound 2.53 µM) was 0.19. For the same compound, the relative viability (LU99A; first compound 8 µM) was 0.21, the relative viability (SK-MES-1; first compound 0.08 µM) was 0.97 and the relative viability (SK-MES-1; first compound 0.253 µM) was 0.911. For the same compound, the relative viability (SK-MES-1; first compound 0.8 µM) was 0.839, the relative viability (SK-MES-1; first compound 2.53 µM) was 0.766 and the relative viability (SK-MES-1; first compound 8 µM) was 0.919. For the same compound, the relative viability (HCC-827; first compound 0.253 µM) was 0.271, the relative viability (HCC-827; first compound 0.8 µM) was 0.279 and the relative viability (HCC-827; first compound 8 µM) was 0.287. The relative viability (PC-3 [JPC-3]; first compound 0.08 µM) was 1.07, the relative viability (PC-3 [JPC-3]; first compound 0.253 µM) was 0.979 and the relative viability (PC-3 [JPC-3]; first compound 0.8 µM) was 0.81. For the same compound, the relative viability (PC-3 [JPC-3]; first compound 2.53 µM) was 0.874, the relative viability (PC-3 [JPC-3]; first compound 8 µM) was 1.14 and the relative viability (NCI-H1651; first compound 0.08 µM) was 0.568. For the same compound, the relative viability (NCI-H1651; first compound 0.253 µM) was 0.671, the relative viability (NCI-H1651; first compound 0.8 µM) was 0.541 and the relative viability (NCI-H1651; first compound 2.53 µM) was 0.53. It also gave a relative viability (NCI-H1651; first compound 8 µM) of 0.606, a relative viability (NCI-H2170; first compound 0.08 µM) of 0.244 and a relative viability (NCI-H2170; first compound 0.253 µM) of 0.271. It also gave a relative viability (NCI-H2170; first compound 0.8 µM) of 0.286, a relative viability (NCI-H2170; first compound 2.53 µM) of 0.266 and a relative viability (NCI-H2170; first compound 8 µM) of 0.282. The relative viability (HARA; first compound 0.08 µM) was 0.273, the relative viability (HARA; first compound 0.253 µM) was 0.254 and the relative viability (HARA; first compound 0.8 µM) was 0.233. The relative viability (HARA; first compound 2.53 µM) was 0.222, the relative viability (HARA; first compound 8 µM) was 0.299 and the relative viability (UMC-11; first compound 0.08 µM) was 0.77. For the same compound, the relative viability (UMC-11; first compound 0.253 µM) was 0.883, the relative viability (UMC-11; first compound 0.8 µM) was 0.725 and the relative viability (UMC-11; first compound 2.53 µM) was 0.625. For the same compound, the relative viability (UMC-11; first compound 8 µM) was 0.576, the relative viability (HCC-15; first compound 0.08 µM) was 0.246 and the relative viability (HCC-15; first compound 0.253 µM) was 0.239. It also gave a relative viability (HCC-15; first compound 0.8 µM) of 0.203, a relative viability (HCC-15; first compound 2.53 µM) of 0.208 and a relative viability (HCC-15; first compound 8 µM) of 0.223. The relative viability (NCI-H650; first compound 0.08 µM) was 1.28, the relative viability (NCI-H650; first compound 0.253 µM) was 0.888 and the relative viability (NCI-H650; first compound 0.8 µM) was 0.857. The relative viability (NCI-H650; first compound 2.53 µM) was 0.823, the relative viability (NCI-H650; first compound 8 µM) was 0.882 and the relative viability (LCLC-97TM1; first compound 0.08 µM) was 0.197. For the same compound, the relative viability (LCLC-97TM1; first compound 0.253 µM) was 0.195, the relative viability (LCLC-97TM1; first compound 0.8 µM) was 0.177 and the relative viability (LCLC-97TM1; first compound 2.53 µM) was 0.129. For the same compound, the relative viability (LCLC-97TM1; first compound 8 µM) was 0.145, the relative viability (NCI-H661; first compound 0.08 µM) was 0.919 and the relative viability (NCI-H661; first compound 0.253 µM) was 0.925. The relative viability (NCI-H661; first compound 0.8 µM) was 0.856, the relative viability (NCI-H661; first compound 2.53 µM) was 0.783 and the relative viability (NCI-H661; first compound 8 µM) was 0.881. The relative viability (NCI-H1395; first compound 0.08 µM) was 0.881, the relative viability (NCI-H1395; first compound 0.253 µM) was 0.807 and the relative viability (NCI-H1395; first compound 2.53 µM) was 0.758. The relative viability (NCI-H1395; first compound 8 µM) was 0.914, the relative viability (COR-L 105; first compound 0.08 µM) was 1.14 and the relative viability (COR-L 105; first compound 0.253 µM) was 1.07. For the same compound, the relative viability (COR-L 105; first compound 0.8 µM) was 1.07, the relative viability (COR-L 105; first compound 2.53 µM) was 1.24 and the relative viability (COR-L 105; first compound 8 µM) was 0.96. It also gave a relative viability (NCI-H2405; first compound 0.08 µM) of 1, a relative viability (NCI-H2405; first compound 0.253 µM) of 0.763 and a relative viability (NCI-H2405; first compound 0.8 µM) of 1.12. It also gave a relative viability (NCI-H2405; first compound 2.53 µM) of 0.605, a relative viability (NCI-H2405; first compound 8 µM) of 1.01 and a relative viability (H3255; first compound 0.08 µM) of 0.588. The relative viability (H3255; first compound 0.253 µM) was 0.561, the relative viability (H3255; first compound 0.8 µM) was 0.577 and the relative viability (H3255; first compound 2.53 µM) was 0.525. For the same compound, the relative viability (H3255; first compound 8 µM) was 0.627, the relative viability (NCI-H2087; first compound 0.08 µM) was 0.695 and the relative viability (NCI-H2087; first compound 0.253 µM) was 0.686. For the same compound, the relative viability (NCI-H2087; first compound 0.8 µM) was 0.616, the relative viability (NCI-H2087; first compound 2.53 µM) was 0.647 and the relative viability (NCI-H2087; first compound 8 µM) was 0.574. The relative viability (NCI-H2228; first compound 0.08 µM) was 0.33, the relative viability (NCI-H2228; first compound 0.253 µM) was 0.332 and the relative viability (NCI-H2228; first compound 0.8 µM) was 0.29. For the same compound, the relative viability (NCI-H2228; first compound 2.53 µM) was 0.333, the relative viability (NCI-H2228; first compound 8 µM) was 0.318 and the relative viability (201T; first compound 0.08 µM) was 0.337. The relative viability (201T; first compound 0.253 µM) was 0.323, the relative viability (201T; first compound 0.8 µM) was 0.296 and the relative viability (201T; first compound 2.53 µM) was 0.311. For the same compound, the relative viability (201T; first compound 8 µM) was 0.308.
